In series [1] the test system is P. falciparum CQ-sensitive strain 3D7.
Series [2] deals with P. falciparum CQ-resistant strain Dd2.
For series [3], the system named is non-infected erythrocytes.
A further series in a line: in vitro. Particulars: human.
Series [4] deals with P. falciparum CQ-sensitive strain 3D7. Nature of the series: microbe, parasite or virus in culture. Particulars: Plasmodium falciparum, 3D7, 72 h.
The subject of series [5] is P. falciparum CQ-resistant strain Dd2. Kind of series: microbe, parasite or virus in culture. To be noted: Plasmodium falciparum, DD2, 72 h.
In series [6] the test system is P. falciparum gametocyte-producing strain NF54 gametocytes. The series is classed as cell-based, Plasmodium falciparum.
Series [7] has as its system P. falciparum mature gametocytes (male gametogenesis). The series is classed as cell-based, Plasmodium falciparum.
The subject of series [8] is leukemia cell line Nalm-6.

The results in this text go back to article PMC7459655 (Biomedicines, 2020).

Where “and” joins values, the source holds several entries; their conditions need not be identical. Equal entries are not always repeated.

With `c1ccc(-c2ccccc2[As]23(OCCO2)OCCO3)cc1` [As-4], in series [1], the “SI (ratio of CC50 and IC50)” value is greater than 12; the “antiplasmodial activity against 3D7 (in words)” value was “lower micromolar ranges”. Also, in series [2], the “SI (ratio of CC50 and IC50)” value was greater than 3; the “antiplasmodial activity against Dd2 compared to 3D7 (in words)” value is reported as “reduced antiplasmodial activities”. Besides, in series [3], the “hemolytic effect on erythrocytes (in words)” value is “no hemolytic effect”. In the series “in vitro”, this molecule came in with a CC50 greater than 100 µM. Further, in [4], 8.64 ± 0.963 µM corresponded to half-maximal inhibition (IC50) and the 90% effect level (IC90) was put at 77.8 µM. For the same molecule, in [5], the IC50 – broadly, the concentration that gives 50% inhibition – came out at 30.1 ± 2.07 µM.

Consider `O[As]12(OC(C(F)(F)F)(C(F)(F)F)c3ccccc31)OC(C(F)(F)F)(C(F)(F)F)c1ccccc12` [As-5], for which the “antiplasmodial activity against 3D7 (in words)” value in [1] was “higher micromolar ranges”. In series [4], the IC50 is 16.6 ± 3.09 µM and the IC90 – broadly, the point of the concentration-response curve where the effect stands at 90% – turned out to be 149 µM.

In the case of `Cc1ccc2ccccc2c1[As](=O)(O)c1c(C)ccc2ccccc12` [As-8], the “reduction of gametocyte development (stage IV and V gametocytes)” value in [6] is given as “about 60%”. In series [7], the “reduction in exflagellation (numbers of exflagellation centers)” value was 67% and 87%. In series [1], the “SI (ratio of CC50 and IC50)” value was greater than 66; the “antiplasmodial activity against 3D7 (in words)” value is reported as “lower micromolar ranges”. Besides, in [2], the “SI (ratio of CC50 and IC50)” value is given as greater than 286; the “antiplasmodial activity against Dd2 compared to 3D7 (in words)” value is on record as “increased activities”. For the same molecule, in series [3], the “hemolytic effect on erythrocytes (in words)” value is “no hemolytic effect”. Besides, the “cytotoxic effect, LDH release (in words)” value in [8] is “No noticeable cytotoxic effect”. In addition, the CC50 in the series “in vitro” is greater than 100 µM. In [4], this molecule registered an IC50 of 1.52 ± 0.089 µM and an IC90 of 13.7 µM. In series [5], this molecule registered a half-maximal inhibitory concentration (IC50) of 0.35 ± 0.099 µM and a 90% effect concentration (IC90) of 3.15 µM.

On to `CC(C)[C@H]1COC(c2ccccc2[As](c2ccccc2)c2ccccc2)=N1` [As-10], for which the “antiplasmodial activity against 3D7 (in words)” value in series [1] is on record as “higher micromolar ranges”. In series [4], half-maximal inhibition (IC50) was put at 18.1 ± 3 µM and the concentration for an effect of 90% (IC90) came out at 163 µM.

Turning to `CCCCCCCCCCCC[As](=O)(CCCCCCCCCCCC)CCCCCCCCCCCC` [As-11], the “antiplasmodial activity against 3D7 (in words)” value in [1] is reported as “higher micromolar ranges”. This molecule also had an IC50 in series [4] of 43 ± 5.7 µM.
